Measured values taken from US9434724B2, “Quinuclidines for modulating alpha 7 activity” (priority 2014, dated 2016).
Read-outs that look alike come from different tables or passages of the source.

Legend:
[1] = molecular target: T1, rat brain nicotinic receptor (α7 NAChR) (Rattus norvegicus (Rat), UniProt Q05941); format: binding
hERG channels = hERG channels (Homo sapiens (Human), UniProt Q12809); test: hERG inhibition assay (automated patch clamp, CHO cells); format: cell-based
Experimental: hERG study was conducted with an automated patch clamp machine, Qpatch-48HT (Sophion Biosciences, Denmark). Cultured CHO cells stably expressing hERG channels (provided by Sophion Biosciences, Denmark) were harvested from culture flasks of 70-90% cell confluence rate and prepared as cell suspension with a cell density of 3-8×10^6 cells/mL in serum-free media (CHO-S-SFM II, cat#12052 Invitrogen; 25 mM HEPES). Cells in such condition were placed into a Qpatch cell stir chamber and used within 4 hours.
For each run, cells were first spun down by the built-in Qpatch centrifuge and re-suspended in an extracellular solution (in mM, 2 CaCl2, 1 MgCl2, 4 KCl, 145 NaCl, 10 Glucose, 10 HEPES, pH 7.4, osmolarity ˜305 mOsm). Qplate-48 that holds one cell in each of its 48 channels for the later voltage-clamped assay were primed with the extracellular solution and intracellular solution (in mM, 5.4 CaCl2, 1.75 MgCl2, 120 KCl, 10 HEPES, 5 EGTA, 4 NaATP, pH 7.25, Osmolarity ˜280-295 mOsm). Cells were dispatched by Qpatch robotic dispensing guns into each Qplate channel and went through the process of giga-ohm sealing and whole cell configuration. Whole-cell recordings were performed in voltage-clamp mode at a holding potential of −80 mV. […]

CYP3A4 = CYP3A4 (Homo sapiens (Human), UniProt P08684); conditions: microsomes, 5 min
Sequence of CYP3A4 (P08684 whole entry): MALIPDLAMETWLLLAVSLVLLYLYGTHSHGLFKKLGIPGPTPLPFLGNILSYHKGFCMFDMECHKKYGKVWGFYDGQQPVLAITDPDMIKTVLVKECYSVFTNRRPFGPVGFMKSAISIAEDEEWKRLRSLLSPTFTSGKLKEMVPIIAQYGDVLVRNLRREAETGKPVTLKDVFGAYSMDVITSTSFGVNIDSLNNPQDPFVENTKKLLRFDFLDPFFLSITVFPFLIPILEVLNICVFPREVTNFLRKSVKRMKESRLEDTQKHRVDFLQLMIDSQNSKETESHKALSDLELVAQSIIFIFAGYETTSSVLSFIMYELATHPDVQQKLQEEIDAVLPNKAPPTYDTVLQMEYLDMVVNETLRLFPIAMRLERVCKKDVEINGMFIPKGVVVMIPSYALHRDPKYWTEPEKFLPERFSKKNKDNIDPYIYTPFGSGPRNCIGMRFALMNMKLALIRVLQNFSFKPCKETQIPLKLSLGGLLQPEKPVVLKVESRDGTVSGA

CYP1A2 = CYP1A2 (Homo sapiens (Human), UniProt P05177); test: Cytochrome P450 inhibition in human liver microsomes, CYP1A2; conditions: read-out: 1A2 IC50, Protocol 1
Sequence of CYP1A2 (P05177 whole entry): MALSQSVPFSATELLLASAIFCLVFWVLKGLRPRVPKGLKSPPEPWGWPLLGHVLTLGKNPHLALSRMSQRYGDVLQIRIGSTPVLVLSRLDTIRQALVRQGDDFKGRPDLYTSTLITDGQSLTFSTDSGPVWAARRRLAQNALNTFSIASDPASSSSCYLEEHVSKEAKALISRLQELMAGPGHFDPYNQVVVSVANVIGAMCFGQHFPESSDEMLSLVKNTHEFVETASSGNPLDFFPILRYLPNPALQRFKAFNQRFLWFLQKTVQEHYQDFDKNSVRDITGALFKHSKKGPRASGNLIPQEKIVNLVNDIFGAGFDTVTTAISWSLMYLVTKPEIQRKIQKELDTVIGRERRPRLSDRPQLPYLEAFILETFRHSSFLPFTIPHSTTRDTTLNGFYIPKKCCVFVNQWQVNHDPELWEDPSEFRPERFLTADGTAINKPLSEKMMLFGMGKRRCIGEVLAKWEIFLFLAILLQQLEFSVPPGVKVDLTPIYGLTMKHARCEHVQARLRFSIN

CYP2C9 = CYP2C9 (Homo sapiens (Human), UniProt P11712); test: Cytochrome P450 inhibition in human liver microsomes, CYP2C9; conditions: read-out: 2C9 IC50, Protocol 1
Sequence of CYP2C9 (P11712 whole entry): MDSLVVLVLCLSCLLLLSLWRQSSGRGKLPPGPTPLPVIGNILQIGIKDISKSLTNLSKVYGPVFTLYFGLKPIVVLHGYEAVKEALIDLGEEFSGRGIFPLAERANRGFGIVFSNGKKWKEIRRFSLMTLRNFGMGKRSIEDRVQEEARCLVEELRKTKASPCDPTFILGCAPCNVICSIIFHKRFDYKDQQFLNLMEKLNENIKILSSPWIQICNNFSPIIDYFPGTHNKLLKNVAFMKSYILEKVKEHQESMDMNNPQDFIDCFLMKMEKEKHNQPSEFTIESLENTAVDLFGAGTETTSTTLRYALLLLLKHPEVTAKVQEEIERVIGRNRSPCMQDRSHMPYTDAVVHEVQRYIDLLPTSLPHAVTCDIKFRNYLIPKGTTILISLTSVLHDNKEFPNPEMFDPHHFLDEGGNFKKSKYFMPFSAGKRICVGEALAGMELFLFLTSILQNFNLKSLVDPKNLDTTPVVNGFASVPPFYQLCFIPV

CYP2C19 = CYP2C19 (Homo sapiens (Human), UniProt P33261); test: Cytochrome P450 inhibition in human liver microsomes, CYP2C19; conditions: read-out: 2C19 IC50, Protocol 1
Sequence of CYP2C19 (P33261 whole entry): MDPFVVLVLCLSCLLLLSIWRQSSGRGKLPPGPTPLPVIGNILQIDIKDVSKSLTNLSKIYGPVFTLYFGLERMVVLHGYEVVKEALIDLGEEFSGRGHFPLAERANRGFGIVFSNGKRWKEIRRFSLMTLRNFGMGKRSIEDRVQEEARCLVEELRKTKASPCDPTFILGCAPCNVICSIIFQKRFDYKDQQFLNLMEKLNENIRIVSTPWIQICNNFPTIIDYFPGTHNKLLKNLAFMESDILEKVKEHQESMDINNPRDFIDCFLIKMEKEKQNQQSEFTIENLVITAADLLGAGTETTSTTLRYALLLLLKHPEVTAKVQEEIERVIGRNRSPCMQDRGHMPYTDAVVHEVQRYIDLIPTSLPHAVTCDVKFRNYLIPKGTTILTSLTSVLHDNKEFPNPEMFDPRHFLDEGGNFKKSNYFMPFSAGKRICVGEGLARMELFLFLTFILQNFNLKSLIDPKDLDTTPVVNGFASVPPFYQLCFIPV

[2] = molecular target: T1, rat brain nicotinic receptor (α7 NAChR); format: binding; conditions: Protocol No. 2; [3H] α-Bungarotoxin 0.4 nM, rat brain P2 membrane
Human α7 NAChR = Human α7 NAChR (Homo sapiens (Human), UniProt P36544); test: Electrophysiology screen at 1 μM in Xenopus laevis oocytes; format: cell-based; conditions: 1 μM test compound; Imax = maximal current produced by 3 mM ACh
Sequence of Human α7 NAChR (P36544 23-502 limits assumed): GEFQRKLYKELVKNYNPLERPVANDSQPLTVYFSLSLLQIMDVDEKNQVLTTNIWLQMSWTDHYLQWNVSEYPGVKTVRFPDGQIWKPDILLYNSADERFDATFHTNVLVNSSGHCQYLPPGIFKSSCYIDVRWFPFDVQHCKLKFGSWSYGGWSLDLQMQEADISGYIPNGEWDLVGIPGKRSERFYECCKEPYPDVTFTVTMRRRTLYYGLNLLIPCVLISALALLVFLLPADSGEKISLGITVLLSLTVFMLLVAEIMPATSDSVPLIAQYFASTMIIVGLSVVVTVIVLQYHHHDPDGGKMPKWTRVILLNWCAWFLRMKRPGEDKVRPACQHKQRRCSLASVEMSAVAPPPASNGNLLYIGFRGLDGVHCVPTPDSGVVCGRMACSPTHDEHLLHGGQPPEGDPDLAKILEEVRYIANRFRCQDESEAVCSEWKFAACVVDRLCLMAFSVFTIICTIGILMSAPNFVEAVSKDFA
Experimental: Human α7 NAChR plasmid was prepared by GeneWiz from accession NM_000746.5. Human α7 NAChR mRNA was prepared by TriLink at a concentration near 1 μg/μL. The human α7 NAChR mRNA was diluted in sterile water to a working concentration near 10 ng/μL.
Oocytes were obtained from Xenopus laevis frogs and treated with collagenase by Ecocyte Bioscience. Oocytes were injected with the working concentration of α7 NAChR mRNA at a volume of 50 nL for a total of approximately 0.5 ng of α7 NAChR mRNA. Oocytes were maintained in Barth's solution at a temperature of 16° C. The Barth's solution was replaced daily.
Two-electrode voltage clamp recordings were made 3-14 days following mRNA injections at a holding voltage of −70 mV. The NAChR recordings were performed in Ca^++-free Ringer solution (115 mM NaCl, 2 mM KCl, 1.8 mM BaCl2, 5 mM HEPES; pH˜7.4) to limit Ca^++-activated chloride currents.
In all oocyte recordings, drug and wash solutions were applied using a custom-designed microcapillary “linear array” which allows rapid application of agonists. Currents were recorded on a PC-based computer (PClamp, Molecular Devices, Sunnyvale, Calif.). Responses were reported as (I/Imax), where I is the amount of current given by a selected concentration of drug and Imax is the amount of maximal current produced by a 3 mM solution of ACh.
Stocks of test compounds were prepared in DMSO. Test solutions in Ringer were prepared immediately before application of test compound (final DMSO concentration of 0.1%). The final concentration of test compound in the test solution was 1 μM. The test solution was perfused onto the oocyte until a peak current was recorded. There was approximately two minutes of wash time with only the Ringer solution between each application of agonist. Measurement of the test solution was repeated between 2 and 6 times with a two minute wash time between each application of test solution. An average of the currents for each test compound was used to define the response for the test compound.

[3] = Caco-2 permeability assay; format: in vitro ADME; conditions: human
Experimental: Caco-2 cells were obtained from American Tissue Culture Collection (Rockville, Md.). The cells were maintained in Modified Eagle's medium (MEM), containing 10% heat-inactivated fetal bovine serum (FCS) and 1% non-essential amino acids, in CO2 at 37° C. Cells were seeded on polycarbonate filter inserts (Millipore, CAT#PSHT 010 R5).
The cells were cultivated for 21-28 days prior to the transport experiments. The transepithelial electric resistance (TEER) and Lucifer Yellow permeability were checked routinely before and after the assay. Compounds were dissolved at 10 mM in 100% dimethyl sulfoxide (DMSO) and diluted for studies in Hank's Balanced Salt Solution (HBSS, Invitrogen, Cat#14025-092) with 25 mM HEPES, pH 7.4. Compounds were tested at 10 μM, and in both the apical-to-basolateral (A-B) and basolateral-to-apical (B-A) directions, at 37° C. for 90 min. At the end of incubation, donor samples were diluted 10-fold by assay buffer, then 60 μL of receiver and diluted-donor samples were mixed with 60 μL of acetonitrile, and analyzed by LC-MS/MS. The concentrations of the compounds were quantified by standard curve.

T1 sequence (Q05941 23-502 limits assumed): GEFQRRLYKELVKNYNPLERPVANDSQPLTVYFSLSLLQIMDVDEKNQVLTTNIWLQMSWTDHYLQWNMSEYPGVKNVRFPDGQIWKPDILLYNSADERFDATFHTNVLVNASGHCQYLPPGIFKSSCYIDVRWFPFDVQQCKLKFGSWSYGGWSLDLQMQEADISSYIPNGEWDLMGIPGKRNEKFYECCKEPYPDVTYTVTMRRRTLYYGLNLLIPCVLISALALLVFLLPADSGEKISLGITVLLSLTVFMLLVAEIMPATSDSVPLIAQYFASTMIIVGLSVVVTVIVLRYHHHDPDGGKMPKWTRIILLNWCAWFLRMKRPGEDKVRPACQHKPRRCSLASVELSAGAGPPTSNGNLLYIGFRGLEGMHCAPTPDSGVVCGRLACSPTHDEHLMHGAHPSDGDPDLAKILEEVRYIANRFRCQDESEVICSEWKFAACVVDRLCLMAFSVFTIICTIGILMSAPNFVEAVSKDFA
Sequence of hERG channels (Q12809 whole entry): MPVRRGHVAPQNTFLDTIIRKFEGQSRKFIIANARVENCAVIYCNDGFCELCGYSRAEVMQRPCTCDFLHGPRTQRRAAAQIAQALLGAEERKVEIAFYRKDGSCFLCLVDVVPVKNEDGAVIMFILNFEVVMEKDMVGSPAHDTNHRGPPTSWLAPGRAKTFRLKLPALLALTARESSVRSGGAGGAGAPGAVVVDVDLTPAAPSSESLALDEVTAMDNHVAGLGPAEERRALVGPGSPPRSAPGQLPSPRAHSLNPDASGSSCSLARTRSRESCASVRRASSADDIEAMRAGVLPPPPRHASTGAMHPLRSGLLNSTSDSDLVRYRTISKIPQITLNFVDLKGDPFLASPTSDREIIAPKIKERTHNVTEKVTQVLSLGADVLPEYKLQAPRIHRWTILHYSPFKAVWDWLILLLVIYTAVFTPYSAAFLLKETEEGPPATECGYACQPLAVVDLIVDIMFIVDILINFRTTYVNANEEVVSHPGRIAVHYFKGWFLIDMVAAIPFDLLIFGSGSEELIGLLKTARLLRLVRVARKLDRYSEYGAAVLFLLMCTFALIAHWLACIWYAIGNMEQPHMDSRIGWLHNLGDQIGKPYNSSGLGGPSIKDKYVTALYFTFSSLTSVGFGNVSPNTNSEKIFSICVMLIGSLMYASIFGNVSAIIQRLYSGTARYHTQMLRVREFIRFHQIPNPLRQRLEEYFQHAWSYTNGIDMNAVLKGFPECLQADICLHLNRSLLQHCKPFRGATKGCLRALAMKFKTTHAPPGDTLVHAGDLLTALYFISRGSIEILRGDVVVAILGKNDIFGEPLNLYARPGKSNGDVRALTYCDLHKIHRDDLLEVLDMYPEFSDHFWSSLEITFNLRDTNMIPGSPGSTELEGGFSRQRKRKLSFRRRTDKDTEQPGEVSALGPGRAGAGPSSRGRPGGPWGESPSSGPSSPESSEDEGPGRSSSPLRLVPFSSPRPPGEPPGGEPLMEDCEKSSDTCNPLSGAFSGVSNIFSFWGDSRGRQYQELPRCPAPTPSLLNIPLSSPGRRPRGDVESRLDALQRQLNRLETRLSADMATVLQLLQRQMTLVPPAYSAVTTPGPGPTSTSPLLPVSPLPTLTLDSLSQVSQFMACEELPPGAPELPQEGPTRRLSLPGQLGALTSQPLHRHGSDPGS

With `O=C(OCC12CCN(CC1)CC2)c1c[nH]c2cc(O)cc(Cl)c12` [Compound 46, quinuclidin-4-ylmethyl 4-chloro-6-hydroxy-1H-indole-3-carboxylate] the IC50 [1] was 33.4 nM, the Ki [1] was 28.6 nM and the IC50 (hERG channels) was greater than 30000 nM. For the same molecule, the IC50 (CYP3A4) was greater than 10000 nM, the IC50 (CYP1A2) was greater than 10000 nM and the IC50 (CYP2C9) was greater than 10000 nM. It also gave an IC50 (CYP2C19) greater than 10000 nM.
`COc1c(OCC(F)(F)F)ccc2[nH]cc(C(=O)OCC34CCN(CC3)CC4)c12` [Compound 88, quinuclidin-4-ylmethyl 4-methoxy-5-(2,2,2-trifluoroethoxy)-1H-indole-3-carboxylate] gave an IC50 [2] of 211 nM, a Ki [2] of 356 nM and an I/Imax (Human α7 NAChR) of 0.185. It also gave an efflux ratio at 90 min, 10 μM ([3]; pH 7.4, Caco-2, 10 μM) of 7.86, a Papp A→B at 90 min, 10 μM ([3]; pH 7.4, Caco-2, apical-to-basolateral, 10 μM) of 3.25 ×10⁻⁶ cm/s and a Papp B→A at 90 min, 10 μM ([3]; pH 7.4, Caco-2, basolateral-to-apical, 10 μM) of 25.5 ×10⁻⁶ cm/s.
For `Cc1cc(Cl)c2c(C(=O)OCC34CCN(CC3)CC4)c[nH]c2c1.Cl` [Compound 65, quinuclidin-4-ylmethyl 4-chloro-6-methyl-1H-indole-3-carboxylate hydrochloride], the IC50 [1] was 63.6 nM, the Ki [1] was 54.6 nM and the I/Imax (Human α7 NAChR) was 0.212. The IC50 (hERG channels) was 2430 nM.
